Results on one compound are retold here after patent publication US5231091A, “Bis-arylphosphate ester antagonists of platelet activating factor” (priority 1992, dated 1993).

As a reminder, the pIC50 is −log10 of the IC50, conventionally taken in molar units.

The test system of one test is LPS induced hypotension. The experiment in a line: Endotoxin (LPS) induced hypotension in rats. The format is in vivo, rat (male Wistar). Conditions: anesthetized rats; 10 ug/kg intraarterially 5 minutes after LPS 15 mg/kg I.V. The procedure: Bacterial cell wall lipopolysaccharide from E. coli strain 0111:B4 (Sigma #L-2630) was dissolved in saline at a concentration of 3.75 mg/ml and administered to rats at 15 mg/kg I.V. Test compounds were dissolved in saline at 1 mg/ml, diluted to 10 ug/ml, and injected intraarterially at 1 ml/kg (10 ug/kg). Male wistar strain rats were obtained from Charles River Labs and maintained according to ALAC standards. They were anesthetized with 30 mg/kg pentobarbital ip with supplementation as needed. The throat was opened, the left carotid artery was cannulated with PE-10 tubing and the trachea cannulated with 0.100 O.D. tubing. Ventilation was maintained by a Harvard Apparatus small animal pump at a rate sufficient to nearly abolish spontaneous respiration.

The next test has as its target T1, PAF receptor (Oryctolagus cuniculus, UniProt G1TEI7).
T1 construct: endogenous in cells; host or cells: rabbit platelets (male New Zealand White)
The experiment in a line: Inhibition of PAF-induced aggregation in rabbit platelet rich plasma. To be noted: rabbit platelet rich plasma; PAF challenge 5E-8M; number of experiments in parentheses; read-out: IC50 inhibition of PAF-induced aggregation. The format is cell-based, rabbit (male New Zealand White). The procedure:
Test compounds were evaluated as PAF receptor antagonists in vitro by measuring inhibition of PAF (platelet activating factor) induced platelet aggregation. Platelet aggregation was measured by a modification of the method described in A. Wissner, et. al., J. Med. Chem., 27, 1174, 1984.
Approximately 120-240 ml of blood were collected by cardiac puncture from unanesthetized male New Zealand White rabbits (Whaley's Summit View Farms, Belvedere, N.J.) with the use of 3.2% sodium citrate anticoagulant (1 part of citrate/10 parts of blood). All syringes and pipets were plastic. The blood was gently mixed and immediately centrifuged at 800 rpm for 10-15 minutes at room temperature to recover the platelet rich plasma (PRP). Platelet poor plasma (PPP) was prepared by centrifuging PRP at 2800 rpm for 10 minutes at room temperature.
Dilutions (1:3000) of PRP in Isoton® diluent were made and platelet counts were determined on a Coulter Thrombocounter which was standardized with platelet reference standards (Interscience Platelet Control, Portland, Oreg.). PRP platelet counts were adjusted to approximately 400,000-500,000 platelets/μl by the addition of PPP.
L-PAF was obtained from Calbiochem. A stock solution of 1-2 E-3M was prepared in 10% ethanol in water or 100% methanol and serial working dilutions were made using phosphate buffered saline (PBS). 1-2 E-3M stock solutions of test compounds were prepared in 100% methanol and serially diluted in PBS. All solutions were made up in plastic tubes, stored on ice and protected from heat and light. Solutions were prepared fresh or frozen at -20° C. and used within 48 hours.
Incubation mixtures consisted of 400 μl PRP, 50 μl of PBS diluent or test compound and 50 μl of PAF agonist. More specifically, 400 μl of PRP was stabilized in a cuvette for 1-2 minutes at 37° C. in the aggregometer to achieve a stable baseline, then 50 μl of PBS or test compound, was added and incubated for 5 minutes before addition of the challenge concentration of PAF (final concentration of 5E-8M or 1E-7M, as determined from the dose response curve for PAF for that experiment). Aggregation was monitored for 5 minutes. Samples containing test compound or diluent were run simultaneously for comparison. Test compounds were initially evaluated at a screening concentration of 1E-5M.
The recording equipment consisted of a dual channel Chronolog aggregometer connected to a dual channel 10 MV full scale deflection Omniscribe chart recorder (Houston Instruments). […] The bead suspension was used to set the 0% light transmission mark and clear water was used to set the 100% light transmission mark. These limits defined a full scale deflection. The aggregation traces were analyzed by a digitizing method (C. Kohler and B. Zoltan, J. Pharm. Methods, 12, 113, 1984) with x, y coordinate data stored in a computer file. A suitable program computed parameters of interest such as the magnitude of aggregation.

SMILES strings stand for the structures. pIC50: −log10 of the molar value. Where a name gives a salt, the structure may show the parent alone.

T1 sequence (G1TEI7 1-342): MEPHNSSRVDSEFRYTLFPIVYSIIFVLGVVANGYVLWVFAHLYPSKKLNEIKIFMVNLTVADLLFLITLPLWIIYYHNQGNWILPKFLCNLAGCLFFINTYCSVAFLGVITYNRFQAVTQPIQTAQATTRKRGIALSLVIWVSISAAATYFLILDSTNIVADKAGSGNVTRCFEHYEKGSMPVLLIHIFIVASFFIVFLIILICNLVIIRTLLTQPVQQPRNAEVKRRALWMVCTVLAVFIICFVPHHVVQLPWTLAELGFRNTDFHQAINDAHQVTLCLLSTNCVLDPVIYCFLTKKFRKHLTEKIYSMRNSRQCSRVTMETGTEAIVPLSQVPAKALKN

As for `CCCCCCCCCCCCCCOc1cccc(OP(=O)([O-])Oc2cccc(C[n+]3csc(C)c3)c2)c1OC` [3-[[3-[[Hydroxy[2-methoxy-3-(tetradecyloxy)phenoxy]-phosphinyl]oxy]phenyl]methyl]-5-methyl-thiazolium, hydroxide, inner salt], the “% reversal of LPS induced hypotension (fall in mean arterial pressure)” value in the test with LPS induced hypotension was 84%. Also, at PAF receptor, the pIC50 was 5.60.
